# Experimental data: US11401236B2, “Resorcinol derivatives for their cosmetic use” (L'OREAL, priority 2017, dated 2022)
# “And” between values parts separate entries of the source, which are not always exact repeats. Equal entries are not always repeated. Where two headings read alike, the source gives them in different places.
# Key:
# normal human melanocytes = test: Depigmenting activity: reduction of melanin production in normal human melanocytes in vitro; type: cell-based; settings: Melanocyte
# Procedure: The measurement of the depigmenting activity (reduction of melanin production) of compounds of formula (I) was performed by assaying normal human melanocytes in vitro as follows.
# First of all, normal human melanocytes were cultured and dispensed into 384 wells. After 24 hours, the culture medium was replaced with a medium containing compounds of formula (I) to be evaluated. The cells were incubated for 72 hours before measurement of the final optical density, which measures the amount of melanin produced by the melanocytes. A dose effect was performed using a wide concentration range of the compounds evaluated. Thus, by making the concentrations and the measurements of melanin correspond, it is possible to determine an IC50 in μM: concentration at which 50% decrease in melanin synthesis is achieved.
# [1] = tested on: coculture of keratinocytes and melanocytes; test: Modulatory effect on melanogenesis and cytotoxicity in a coculture of keratinocytes and melanocytes; type: cell-based; settings: for IC50: melanin optical density, read-out: IC50 (concentration for which 50% of the melanin synthesis is inhibited)
# Procedure: The modulatory effect on melanogenesis of each compound was measured according to the method described in the patent FR-A-2734825, and also in the article by R. Schmidt, P. Krien and M. Régnier, Anal. Biochem., 235(2), 113-18, 1996. This test is carried out on a coculture of keratinocytes and melanocytes. For the compounds tested, the following were determined: • the cytotoxicity, • the inhibitory activity on melanin synthesis, by estimating the melanin optical density, • the IC50 values (concentration for which 50% of the melanin synthesis is inhibited).
# [2] = Stability of the compound (statement in the synthesis example); type: physicochemical; settings: no conditions given
# [3] = tested on: pigmented reconstructed epidermis; test: Experiment on pigmented reconstructed epidermis (melanin versus solvent); type: cell-based
# From the text: Experiment on pigmented reconstructed epidermis
# [4] = Homo sapiens, 72 h, Table 3 test campaign, normal human melanocytes, 72 hours incubation, 50% decrease in melanin synthesis, maximum concentration tested 200 μM, read-out: IC50
# [5] = Homo sapiens, prior-art comparison compounds, compared with the Table 2 results, melanin synthesis in normal human melanocytes, read-out: IC50 value
# [6] = Table 2 test campaign, normal human melanocytes, 72 hours incubation, concentration at which 50% decrease in melanin synthesis is achieved, maximum concentration tested 200 μM, read-out: IC50
SMILES,IC50 (normal human melanocytes; [4]) [nM],IC50 (normal human melanocytes; [6]) [nM],melting point,further results
"CCOC(=O)C(C)NC(=O)CCC(C)c1ccc(O)cc1O (racemic) [Compound 17, ethyl N-[4-(2,4-dihydroxyphenyl)pentanoyl]-DL-alaninate]",391,–,–,cytotoxicity [1]: non-cytotoxic; IC50 [1]: 120 nM
"CNC(=O)/C=C/c1ccc(O)cc1O [(A), reference compound]",–,–,–,IC50 (normal human melanocytes; [5]): 3860 nM
"COC(=O)CC(C)c1ccc(O)cc1O (centres unmarked) [(B), reference compound]",–,–,–,IC50 (normal human melanocytes; [5]): 4970 nM
"O=C(O)CCc1ccc(O)cc1O [(C), reference compound]",–,–,–,IC50 (normal human melanocytes; [5]): 63100 nM
"CC(CCC(=O)O)c1ccc(O)cc1O (centres unmarked) [Compound 1, 4-(2,4-dihydroxyphenyl)pentanoic Acid]",–,4800,–,stability of the compound [2]: stable
"CCNC(=O)CCC(C)c1ccc(O)cc1O (centres unmarked) [Compound 2, 4-(2,4-dihydroxyphenyl)-N-ethylpentanamide]",–,824,–,depigmenting efficiency ([3]; comparison with lucinol): greater than lucinol; Comparison of melanin with respect to the solvent (DMSO) ([3]; effective concentration 50 μM): −26%
"CC(C)NC(=O)CCC(C)c1ccc(O)cc1O (centres unmarked) [Compound 3, 4-(2,4-dihydroxyphenyl)-N-(propan-2-yl)pentanamide]",–,617,60 to 65 °C and 56 °C,–
"CCCCNC(=O)CCC(C)c1ccc(O)cc1O (centres unmarked) [Compound 4, N-butyl-4-(2,4-dihydroxyphenyl)pentanamide]",–,692,–,–
"CCC(C)NC(=O)CCC(C)c1ccc(O)cc1O (centres unmarked) [Compound 5, N-(butan-2-yl)-4-(2,4-dihydroxyphenyl)pentanamide]",391,447,–,–
"CC(CCC(=O)NC1CCCCC1)c1ccc(O)cc1O (centres unmarked) [Compound 6, N-cyclohexyl-4-(2,4-dihydroxyphenyl)pentanamide]",391,557,75 to 78 °C,cytotoxicity [1]: non-cytotoxic; IC50 [1]: 140 nM
"CC(CCC(=O)NCC1CCCCC1)c1ccc(O)cc1O (centres unmarked) [Compound 7, N-(cyclohexylmethyl)-4-(2,4-dihydroxyphenyl)pentanamide]",–,401,–,–
"CC(CCC(=O)NCCc1ccc(O)cc1)c1ccc(O)cc1O (centres unmarked) [Compound 8, 4-(2,4-dihydroxyphenyl)-N-[2-(4-hydroxyphenyl)ethyl]pentanamide]",–,391,–,–
"CC(CCC(=O)NCCO)c1ccc(O)cc1O (centres unmarked) [Compound 9, 4-(2,4-dihydroxyphenyl)-N-(2-hydroxyethyl)pentanamide]",–,636,–,–
"CC(CCC(N)=O)c1ccc(O)cc1O (centres unmarked) [Compound 10, 4-(2,4-dihydroxyphenyl)pentanamide]",–,1070,54 to 56 °C,–
"CCNC(=O)CCC(C)c1ccc(OC(C)=O)cc1OC(C)=O (centres unmarked) [Compound 11, 4-[5-(ethylamino)-5-oxopentan-2-yl]benzene-1,3-diyl diacetate]",–,940,–,–
"CC(CCC(=O)NCC(=O)O)c1ccc(O)cc1O (centres unmarked) [Compound 14, N-[4-(2,4-dihydroxyphenyl)pentanoyl]glycine]",18500,–,59 to 65 °C,–
"CCOC(=O)[C@H](C)NC(=O)CCC(C)c1ccc(O)cc1O (stereo partly drawn) [Compound 15, ethyl N-[4-(2,4-dihydroxyphenyl)pentanoyl]-L-alaninate]",–,1080,48 to 50 °C,–
"CC(CCC(=O)N[C@H](C)C(=O)O)c1ccc(O)cc1O (stereo partly drawn) [Compound 18, N-[4-(2,4-dihydroxyphenyl)pentanoyl]-D-alanine]",–,1630,65 to 68 °C,–
"COC(=O)[C@H](CC(C)C)NC(=O)CCC(C)c1ccc(O)cc1O (some centres unmarked) [Compound 20, methyl N-[4-(2,4-dihydroxyphenyl)pentanoyl]leucinate]",1200,1580,63 °C,–
"CCOC(=O)[C@H](Cc1ccccc1)NC(=O)CCC(C)c1ccc(O)cc1O (some centres unmarked) [Compound 22, ethyl N-[4-(2,4-dihydroxyphenyl)pentanoyl]phenylalaninate]",8330,–,51 to 59 °C,–
"CCN(CC)C(=O)CCC(C)c1ccc(O)cc1O (centres unmarked) [Compound 24, 4-(2,4-dihydroxyphenyl)-N,N-diethylpentanamide]",–,1020,–,–
"COCCN(CCOC)C(=O)CCC(C)c1ccc(O)cc1O (centres unmarked) [Compound 25, 4-(2,4-dihydroxyphenyl)-N,N-bis(2-methoxyethyl)pentanamide]",5270,–,78 to 81 °C,–
"CCN(CCO)C(=O)CCC(C)c1ccc(O)cc1O (centres unmarked) [Compound 26, 4-(2,4-dihydroxyphenyl)-N-ethyl-N-(2-hydroxyethyl)pentanamide]",–,1960,–,cytotoxicity [1]: non-cytotoxic; IC50 [1]: 450 nM
"CCOC(=O)CN(C)C(=O)CCC(C)c1ccc(O)cc1O (centres unmarked) [Compound 27, ethyl N-[4-(2,4-dihydroxyphenyl)pentanoyl]-N-methylglycinate]",51300,–,–,–
"CC(CCC(=O)N(C)CC(=O)O)c1ccc(O)cc1O (centres unmarked) [Compound 28, N-[4-(2,4-dihydroxyphenyl)pentanoyl]-N-methylglycine]",31100,–,–,–
"CC(CCC(=O)N1CCOCC1)c1ccc(O)cc1O (centres unmarked) [Compound 29, 4-(2,4-dihydroxyphenyl)-1-(morpholin-4-yl)pentan-1-one]",1820,2940,–,–
"CCOC(=O)CCC(C)c1ccc(O)cc1O (centres unmarked) [Compound 30, ethyl 4-(2,4-dihydroxyphenyl)pentanoate]",–,1010,–,–
"CC(CCC(=O)OC[C@@H](O)[C@H](O)[C@@H](O)CO)c1ccc(O)cc1O (stereo partly drawn) [Compound 32, 5-O-[4-(2,4-dihydroxyphenyl)pentanoyl]-D-xylitol]",–,3030,–,–
"CC(CCC(=O)OCCCNC(=O)C1OC(C)(C)OCC1(C)C)c1ccc(O)cc1O (centres unmarked) [Compound 34, 3-{[(2,2,5,5-tetramethyl-1,3-dioxan-4-yl)carbonyl]amino}propyl 4-(2,4-dihydroxyphenyl)pentanoate]",–,2950,–,–
"CCCCc1ccc(O)cc1O [Lucinol, 4-n-butyl resorcinol, reference compound]",–,–,–,Comparison of melanin with respect to the solvent (DMSO) ([3]; effective concentration 500 μM): −25%; IC50 [1]: 790 nM
